Values of other authors, collected in US12622967B2, “Molecules, formulations, and methods for nutritional support of athletes, patients, and others” (Today, Inc., priority 2022, dated 2026).

Experiments:
[1] = high intensity exercise
[2] = systemic infusion to target 4 mM blood [lactate]; human experimentation under way, personal communication

CC(O)C(=O)O (centres unmarked) [lactate]
time to be oxidized to energy [1]: less than 5 min

CC(O)C(=O)[O-].[Na+] (centres unmarked) [sodium lactate]
effect on cerebral LPR (lactate/pyruvate ratio) [2]: decreases cerebral LPR
